Data reported in patent US10947242B2, “[1,2,4]triazolo[1,5and#8208;A]pyrimidine compounds as PDE2 inhibitors” (Janssen Pharmaceutica NV, priority 2016, dated 2021).
Where two headings read alike, the source gives them in different places.

Key:
[1] = biological target: T1, Human recombinant PDE3A (hPDE3A) (Homo sapiens, UniProt Q14432); assay: In vitro assay PDE3A (SPA, 3H-cAMP hydrolysis); assay type: biochemical; conditions: for IC50: hPDE3B pIC50, read-out: pIC50 (converted); for Emax: read-out: hPDE3B Emax;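 on all read-outs here: the method names PDE3A and the table heading PDE3B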
T1 construct: purchased Scottish Biomedical; host or cells: Sf9 insect cells
T1 sequence (Q14432 whole entry): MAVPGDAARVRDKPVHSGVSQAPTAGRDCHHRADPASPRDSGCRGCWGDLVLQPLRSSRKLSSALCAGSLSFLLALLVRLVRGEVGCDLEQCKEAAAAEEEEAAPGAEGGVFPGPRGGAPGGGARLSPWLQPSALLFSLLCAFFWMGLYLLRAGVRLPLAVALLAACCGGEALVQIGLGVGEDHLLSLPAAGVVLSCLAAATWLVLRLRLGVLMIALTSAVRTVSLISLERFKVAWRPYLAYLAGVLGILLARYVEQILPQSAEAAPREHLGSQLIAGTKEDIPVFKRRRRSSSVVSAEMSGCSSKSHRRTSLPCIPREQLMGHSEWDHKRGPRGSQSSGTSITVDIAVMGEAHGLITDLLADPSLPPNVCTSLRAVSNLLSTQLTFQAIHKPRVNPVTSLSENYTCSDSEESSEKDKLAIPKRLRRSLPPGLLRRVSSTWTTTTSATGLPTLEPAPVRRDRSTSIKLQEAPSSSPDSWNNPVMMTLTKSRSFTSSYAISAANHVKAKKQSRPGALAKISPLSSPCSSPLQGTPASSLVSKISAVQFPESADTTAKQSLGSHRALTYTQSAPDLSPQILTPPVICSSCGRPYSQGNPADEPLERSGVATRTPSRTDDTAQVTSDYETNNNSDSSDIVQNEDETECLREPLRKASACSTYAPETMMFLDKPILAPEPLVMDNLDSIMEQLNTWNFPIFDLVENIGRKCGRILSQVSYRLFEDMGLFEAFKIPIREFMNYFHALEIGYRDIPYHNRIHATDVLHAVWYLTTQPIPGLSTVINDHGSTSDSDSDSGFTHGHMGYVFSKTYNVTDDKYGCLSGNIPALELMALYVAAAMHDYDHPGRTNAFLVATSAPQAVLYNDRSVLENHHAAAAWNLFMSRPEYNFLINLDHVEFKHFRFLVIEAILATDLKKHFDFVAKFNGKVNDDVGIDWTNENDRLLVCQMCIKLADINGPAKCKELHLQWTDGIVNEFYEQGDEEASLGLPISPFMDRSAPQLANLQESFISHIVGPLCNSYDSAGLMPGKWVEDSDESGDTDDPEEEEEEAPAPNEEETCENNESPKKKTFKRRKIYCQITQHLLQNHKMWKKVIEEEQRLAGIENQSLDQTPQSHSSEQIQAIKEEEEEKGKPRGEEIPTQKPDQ
Procedure, shortened: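 Radiometric SPA measuring [3H]-cAMP hydrolysis (0.4 μM cAMP, 2.4 μCi/ml) over 60 min at room temperature, in Tris pH 7.8 buffer with MgCl2 and EGTA, 1% DMSO. Enzyme: recombinant human brain PDE3A expressed in Sf9 cells, used as partially purified lysate. Counts compared with enzyme-free blanks and vehicle controls.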

[2] = biological target: T2, Human recombinant PDE10A (hPDE10A) (Homo sapiens, UniProt Q9Y233); assay: In vitro assay PDE10A, human clone (SPA, 3H-cAMP hydrolysis); assay type: biochemical
T2 construct: His tag (inferred from metal chelate purification); made in house; host or cells: Sf9 insect cells (baculovirus)
T2 sequence (Q9Y233 267-1055): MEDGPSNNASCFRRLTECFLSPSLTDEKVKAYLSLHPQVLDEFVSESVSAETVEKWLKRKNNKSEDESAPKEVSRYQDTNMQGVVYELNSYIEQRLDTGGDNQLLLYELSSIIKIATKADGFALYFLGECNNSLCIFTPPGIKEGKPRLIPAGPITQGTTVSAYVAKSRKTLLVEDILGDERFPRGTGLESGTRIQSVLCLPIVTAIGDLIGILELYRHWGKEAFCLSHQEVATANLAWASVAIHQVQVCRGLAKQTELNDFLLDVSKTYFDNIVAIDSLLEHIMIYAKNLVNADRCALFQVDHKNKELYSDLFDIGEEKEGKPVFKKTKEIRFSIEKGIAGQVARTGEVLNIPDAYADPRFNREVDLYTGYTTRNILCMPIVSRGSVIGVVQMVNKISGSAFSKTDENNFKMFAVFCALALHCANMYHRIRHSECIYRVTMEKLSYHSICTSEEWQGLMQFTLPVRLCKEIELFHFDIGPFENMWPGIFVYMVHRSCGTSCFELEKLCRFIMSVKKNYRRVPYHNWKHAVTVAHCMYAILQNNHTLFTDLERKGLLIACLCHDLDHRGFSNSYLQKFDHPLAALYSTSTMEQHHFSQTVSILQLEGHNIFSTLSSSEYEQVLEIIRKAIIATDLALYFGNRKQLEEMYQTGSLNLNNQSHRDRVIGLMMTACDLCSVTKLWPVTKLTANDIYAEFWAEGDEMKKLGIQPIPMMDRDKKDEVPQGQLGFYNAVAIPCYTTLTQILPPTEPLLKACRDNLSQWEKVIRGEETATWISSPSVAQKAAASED
Procedure, shortened: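 Hydrolysis of 3H-cAMP (60 nM cAMP, 0.008 μCi tracer) proceeded for 60 min at room temperature, with the product detected by SPA bead scintillation counting. The enzyme was hPDE10A from baculovirus-infected Sf9 cells in Tris pH 7.8 buffer with MgCl2 and EGTA, and compounds were at 1% DMSO final. Blanks lacked enzyme.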

PDE2A = biological target: T3, PDE2A (Rattus norvegicus, UniProt Q01062); assay: PDE2 occupancy by test compounds, ex-vivo autoradiography with [3H]B-17a; assay type: in vivo, Male Wistar rats; conditions: for receptor occupancy at 10 mg/kg: percentage receptor occupancy, ex-vivo autoradiography, striatum; for ED50: read-out: PDE Occupancy ED50
T3 construct: Twenty μm-thick striatal sections were cut; from tissue; host or cells: rat brain, striatal sections
T3 sequence (Q01062 1-928): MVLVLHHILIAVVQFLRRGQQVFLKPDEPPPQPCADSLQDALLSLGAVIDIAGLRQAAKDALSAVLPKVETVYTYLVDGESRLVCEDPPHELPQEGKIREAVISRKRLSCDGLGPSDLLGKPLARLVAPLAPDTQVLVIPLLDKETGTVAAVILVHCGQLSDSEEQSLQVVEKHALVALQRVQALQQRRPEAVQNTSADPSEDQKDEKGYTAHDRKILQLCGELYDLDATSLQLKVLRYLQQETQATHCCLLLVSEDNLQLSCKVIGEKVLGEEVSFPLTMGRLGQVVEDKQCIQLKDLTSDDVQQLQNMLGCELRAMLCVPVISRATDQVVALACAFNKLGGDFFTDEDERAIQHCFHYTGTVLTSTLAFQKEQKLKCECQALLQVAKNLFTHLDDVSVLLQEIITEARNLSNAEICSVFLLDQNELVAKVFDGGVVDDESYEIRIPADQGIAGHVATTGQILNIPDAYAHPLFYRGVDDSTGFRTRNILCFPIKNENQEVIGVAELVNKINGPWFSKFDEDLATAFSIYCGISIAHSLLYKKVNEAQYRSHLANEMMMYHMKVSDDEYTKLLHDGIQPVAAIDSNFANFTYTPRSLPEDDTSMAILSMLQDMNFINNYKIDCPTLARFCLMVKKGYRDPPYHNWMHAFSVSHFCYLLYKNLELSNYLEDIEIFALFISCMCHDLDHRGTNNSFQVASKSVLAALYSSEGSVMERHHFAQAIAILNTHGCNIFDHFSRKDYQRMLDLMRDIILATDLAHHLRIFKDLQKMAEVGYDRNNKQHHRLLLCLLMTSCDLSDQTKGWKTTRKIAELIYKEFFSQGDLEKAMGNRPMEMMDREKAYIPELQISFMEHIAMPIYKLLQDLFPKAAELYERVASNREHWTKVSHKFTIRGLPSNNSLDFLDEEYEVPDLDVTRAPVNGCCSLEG

[3] = biological target: T4, Human recombinant PDE2A (hPDE2A) (Homo sapiens, UniProt O00408); assay: In vitro assay PDE2A (SPA, 3H-cGMP hydrolysis); assay type: biochemical; conditions: for Emax: read-out: hPDE2A Emax
T4 construct: His tag (inferred from metal chelate purification); made in house; host or cells: Sf9 insect cells (baculovirus)
T4 sequence (O00408 whole entry): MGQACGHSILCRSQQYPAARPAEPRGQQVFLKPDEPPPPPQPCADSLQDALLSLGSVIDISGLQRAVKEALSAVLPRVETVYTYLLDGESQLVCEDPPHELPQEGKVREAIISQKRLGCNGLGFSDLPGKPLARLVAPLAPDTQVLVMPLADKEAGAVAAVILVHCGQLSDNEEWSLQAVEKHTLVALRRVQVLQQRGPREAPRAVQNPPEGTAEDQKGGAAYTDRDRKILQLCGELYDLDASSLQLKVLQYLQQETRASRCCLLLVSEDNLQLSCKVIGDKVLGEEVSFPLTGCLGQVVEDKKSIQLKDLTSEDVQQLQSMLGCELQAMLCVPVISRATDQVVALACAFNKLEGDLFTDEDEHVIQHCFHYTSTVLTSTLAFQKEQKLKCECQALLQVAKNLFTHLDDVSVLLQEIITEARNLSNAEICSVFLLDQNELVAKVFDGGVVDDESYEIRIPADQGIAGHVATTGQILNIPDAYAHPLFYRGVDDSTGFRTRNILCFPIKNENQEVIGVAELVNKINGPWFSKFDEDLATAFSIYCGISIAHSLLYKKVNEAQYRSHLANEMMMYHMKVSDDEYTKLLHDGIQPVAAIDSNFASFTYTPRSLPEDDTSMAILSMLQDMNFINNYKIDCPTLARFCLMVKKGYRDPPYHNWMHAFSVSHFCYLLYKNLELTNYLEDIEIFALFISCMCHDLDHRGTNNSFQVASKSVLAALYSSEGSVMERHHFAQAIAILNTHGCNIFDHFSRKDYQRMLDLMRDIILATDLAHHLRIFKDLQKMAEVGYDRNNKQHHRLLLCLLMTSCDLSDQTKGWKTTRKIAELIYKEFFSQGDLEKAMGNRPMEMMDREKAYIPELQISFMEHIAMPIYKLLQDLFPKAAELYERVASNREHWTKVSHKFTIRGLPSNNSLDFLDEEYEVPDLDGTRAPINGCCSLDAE

[4] = human clone (h), default, read-out: hPDE10A2 Emax
[5] = human clone (h), default, read-out: hPDE10A2 pIC50 (converted)
[6] = human recombinant PDE2A, 10 μM cGMP substrate, read-out: hPDE2A pIC50 (converted)
[7] = read-out: hPDE2A pIC50 (converted)
[8] = human clone by default (no (r) mark), read-out: hPDE10A2 or rPDE10A2 Emax
[9] = human clone by default (no (r) mark), read-out: hPDE10A2 or rPDE10A2 pIC50 (converted)
[10] = route PO (oral), drug dose producing 50% receptor occupancy

SMILES | IC50 [1] [nM] | Emax ([1]; read-out: Emax) [%] | Emax [2, 4] [%] | IC50 [2, 5] [nM] | receptor occupancy at 10 mg/kg (PDE2A; po, route PO (oral)) [%] | IC50 [3, 6] [nM] | Emax ([3]; human recombinant PDE2A) [%] | Emax [3] [%] | IC50 [3, 7] [nM] | Emax [2, 8] [%] | IC50 [2, 9] [nM] | receptor occupancy at 10 mg/kg (PDE2A; sc, route SC (subcutaneous)) [%] | ED50 (PDE2A; [10]) [mg/kg] | Emax [1] [%] | ED50 (PDE2A; po) [mg/kg] | hPDE2A Emax [3] | IC50 ([3]; hPDE2A pIC50) [nM] | receptor occupancy at 10 mg/kg (PDE2A; route SC (subcutaneous)) [%] | receptor occupancy at 10 mg/kg (PDE2A; route PO (oral)) [%]
C[C@@H]1CCN(C(=O)c2cccc(C#N)c2)C[C@H]1c1cc(C(F)F)nc2ncnn12 [Compound 197] | > 10000 | 42 | 96 | 209 | 8 | 10.2 | 98 | 98 | 10.2 |  |  |  |  |  |  |  |  |  | 
Cc1cc(C(=O)N2CC[C@H](C)[C@@H](c3cc(C(F)F)nc4ncnn34)C2)cc(C)n1 [Compound 220] | > 10000 |  |  |  | -8 |  |  |  |  | 41 | > 10000 |  |  | 8 | > 80 | 54 | 302 |  | 
Cc1nc(C(=O)N2CC[C@H](C)[C@H](c3cc(C(F)F)nc4ncnn34)C2)ccc1F [Compound 223] | > 10000 | 19 | 71 | 3470 | 19 | 195 | 98 | 98 | 195 | 71 | 3470 |  |  |  |  |  |  |  | 
C[C@@H]1CCN(C(=O)c2ccc3scnc3c2)C[C@H]1c1cc(C(F)F)nc2ncnn12 [Compound 227] | 380 | 95 | 98 | 45.7 |  | 2.19 | 101 | 101 | 2.19 | 98 | 45.7 | 18 |  |  |  |  |  |  | 
C[C@@H]1CCN(C(=O)c2ccc(O)c(C#N)c2)C[C@H]1c1cc(C(F)F)nc2ncnn12 [Compound 231] | 9120 | 57 | 100 | 19.5 |  | 1.35 | 97 | 97 | 1.35 | 100 | 19.5 | -13 |  |  |  |  |  |  | 
Cc1c(C(=O)N2[C@H]3CC[C@H](c4cc(C(F)F)nc5ncnn45)[C@@H]2CC3)oc2ccccc12 [Compound 273] | 813 | 96 | 96 | 977 |  |  |  | 100 | 2.34 | 96 | 977 |  |  |  |  |  |  | 65 | 
Cc1cc(C(=O)N2[C@H]3CC[C@H](c4cc(C(F)F)nc5ncnn45)[C@@H]2CC3)cc(C(F)(F)F)n1 [Compound 286] | > 10000 | 14 |  |  |  |  |  | 101 | 6.92 | 79 | 2240 |  |  |  |  |  |  |  | 5

The next lines start with results.

IC50 [1] [nM] | Emax ([1]; read-out: Emax) [%] | Emax [2, 4] [%] | IC50 [2, 5] [nM] | receptor occupancy at 10 mg/kg (PDE2A; po, route PO (oral)) [%] | IC50 [3, 6] [nM] | Emax ([3]; human recombinant PDE2A) [%] | Emax [3] [%] | IC50 [3, 7] [nM] | Emax [2, 8] [%] | IC50 [2, 9] [nM] | receptor occupancy at 10 mg/kg (PDE2A; sc, route SC (subcutaneous)) [%] | ED50 (PDE2A; [10]) [mg/kg] | SMILES | Emax [1] [%] | ED50 (PDE2A; po) [mg/kg] | hPDE2A Emax [3] | IC50 ([3]; hPDE2A pIC50) [nM] | receptor occupancy at 10 mg/kg (PDE2A; route SC (subcutaneous)) [%] | receptor occupancy at 10 mg/kg (PDE2A; route PO (oral)) [%]
61.7 | 100 | 99 | 11.2 | 59 |  |  | 102 | 0.398 | 99 | 11.2 |  | 11 | COc1cccc2c1OCC(C(=O)N1CC[C@@H](C)[C@H](c3cc(C(F)F)nc4ncnn34)C1)=C2 [Compound 267] |  |  |  |  |  | 
3720 | 78 | 93 | 692 | 22 |  |  | 101 | 0.708 | 93 | 692 |  | 24.2 | C[C@@H]1CCN(C(=O)c2cc(C3CC3)ncc2F)C[C@H]1c1cc(C(F)F)nc2ncnn12 [Compound 269] |  |  |  |  |  | 
8910 | 54 | 93 | 794 | 3 |  |  | 102 | 2.19 | 93 | 794 |  |  | COc1ncc(C)cc1C(=O)N1CC[C@@H](C)[C@H](c2cc(C(F)F)nc3ncnn23)C1 [Compound 272] |  |  |  |  |  | 
977 | 92 |  |  | 23 |  |  | 100 | 2.82 | 100 | 28.8 |  |  | Cc1cc(C(=O)N2CC[C@@H](C)[C@H](c3cc(C)nc4ncnn34)C2)cc(OC(F)F)n1 [Compound 275] |  |  |  |  |  | 
> 10000 | 14 |  |  | -4 |  |  | 99 | 75.9 | 27 | > 10000 |  |  | C[C@@H]1CCN(C(=O)c2cc(C3CC3)ncc2F)C[C@@]1(F)c1cc(C(F)F)nc2ncnn12 [Compound 277] |  |  |  |  |  | 
708 | 97 |  |  | 30 |  |  | 99 | 0.933 | 99 | 145 |  |  | Cc1cc(C(=O)N2CC[C@@H](C)[C@H](c3cc(C(F)F)nc4ncnn34)C2)c(F)c(C2CC2)n1 [Compound 278] |  |  |  |  |  | 
> 10000 | 38 |  |  | -12 |  |  | 100 | 8.51 | 98 | 178 |  |  | Cc1cc([C@@H]2CN(C(=O)c3cc(C4CC4)ncc3C(F)(F)F)CC[C@H]2C)n2ncnc2n1 [Compound 283] |  |  |  |  |  | 
1260 | 89 |  |  | 16 |  |  | 101 | 1.7 | 98 | 55 |  |  | COc1cc(C(=O)N2CC[C@@H](C)[C@H](c3cc(C(F)F)nc4ncnn34)C2)cc(OC)n1 [Compound 284] |  |  |  |  |  | 
